Measurements from patent US12070448B2, “Use of carbamate compound for prevention, alleviation or treatment of status epilepticus” (SK BIOPHARMACEUTICALS CO., LTD., priority 2018, dated 2024).

Experiments:
[1] = system: pilocarpine-induced status epilepticus; experiment: Pilocarpine-induced status epilepticus in mice; format: in vivo, mouse; details: for Mortality: 50 min
Protocol: Male mice (C57BL/6, 21-24 g) were used. The experimental animals were housed under a 12-hour light/dark cycle (lighting from 7 pm to 7 am) and maintained at a temperature of 22-25° C. and about 40 to 60% relative humidity. Food and water were provided ad libitum. The animals were randomly divided into the following groups. […]
Experimental Groups of Administering Positive Control and Test Compound 10 Minutes after Onset of Status Epilepticus • As a control, 13 mice intraperitoneally single administered with 30% PEG300 (vehicle) at a volume of 10 ml/kg • As a positive control, 12 mice intraperitoneally single administered valproic acid (VPA) at a dose of 200 mg/kg (10 ml/kg) • 13 Mice intraperitoneally single administered Test Compound at a dose of 25 mg/kg (10 ml/kg) Induction of Status Epilepticus
Methylscopolamine was dissolved in a vehicle (0.9% saline) at a concentration of 1 mg/kg (10 m/kg) and administered subcutaneously to the back of the neck. After 30 minutes, pilocarpine was dissolved in a vehicle (0.9% saline) at a concentration of 320 mg/kg (10 ml/kg) and administered intraperitoneally.
In the case of the drug-administered experimental groups 10 minutes after onset of status epilepticus, valproic acid and Test Compound were administered 10 minutes after onset of status epilepticus. […]
In the case of the drug-administered experimental groups 10 minutes after onset of status epilepticus, Test Compound was administered intraperitoneally at a dose of 25 mg/kg (10 ml/kg). At the same time point, valproic acid (positive control group) was administered intraperitoneally at a dose of 200 mg/kg (10 ml/kg). […]
In the case of the drug-administered experimental groups 10 minutes after onset of status epilepticus, the effects of the compound were represented as the mean±standard error, and statistical significance was recognized when there was a difference of p<0.05 in data using one-way ANOVA and a Tukey's test as a post-hoc test.

[2] = system: low Mg2+-induced seizure-like events (SLEs) in CA1 pyramidal neurons of hippocampal slices; experiment: Whole-cell patch-clamp model of low Mg2+-induced seizure-like events in mouse hippocampal slices; format: cell-based; details: for Duration of SLE in comparison with before treatment of Test Compound, during treatment / Number of SLE in comparison with before treatment of Test Compound, during treatment: 100 μM; for Duration of SLE in comparison with before treatment of Test Compound, during treatment / Number of SLE in comparison with before treatment of Test Compound, during treatment / Duration of SLE in comparison with before treatment of Test Compound, after washing / Number of SLE in comparison with before treatment of Test Compound, after washing: mean±standard error; for Duration of SLE in comparison with before treatment of Test Compound, after washing / Number of SLE in comparison with before treatment of Test Compound, after washing: after washout of 100 μM
Protocol: Male mice (C57BL/6, 24-26 g) were used. The experimental animals were housed under a 12-hour light/dark cycle (lighting from 7 pm to 7 am) and maintained at a temperature of 22-25° C. and about 40 to 60% relative humidity. Food and water were provided ad libitum.
For whole-cell patch-clamp recording, the brain of the mouse was excised, and the hippocampal slices ([…]) were prepared with oxygenated artificial cerebrospinal fluid (ACSF) (124 mM NaCl, 3.0 mM KCl, 1.23 mM NaH2PO4, 2.2 mM CaCl2, 1.2 mM MgCl2, 26 mM NaHCO3, and 10 mM glucose, pH 7.4). All experiments were performed in visually guided CA1 pyramidal neurons, and a glass pipette (4-5 MΩ) was used for recording. After incubating the tissue for 1 hour, a single slice was submerged in a recording chamber and continuously superfused with oxygenated artificial cerebrospinal fluid (32° C.; 95% O2/5% CO2).
For low Mg^2+-induced seizure-like events (SLEs) measurement, 0 mM MgCl2 and 5.0 mM KCl were used. SLEs were defined by more than three spikes in a burst. Whole-cell patch-clamp currents were digitized with a MultiClamp 700B amplifier and a Digidata 1440 (Axon Instruments, CA), and the acquired data were analyzed with the pCLAMP version 10.2 (Axon Instruments) and the Mini Analysis Program (Synaptosoft).
Early SLEs (immediately after onset of SLEs): measurement of SLEs observed 20-30 minutes after the application of low Mg^2+ ACSF.
Late SLEs (after 1 hour incubation in low Mg^2+ ACSF): measurement of SLEs observed immediately after whole-cell rupture.
The treatment of the compound for measuring the effect of Test Compound was initiated 10-15 minutes after the occurrence of SLEs.
The effect of Test Compound was a comparison value (%) to the SLE value that occurred after the treatment of low Mg^2+ ACSF and before the treatment of Test Compound, and was represented as the mean±standard error. When there was a difference of p<0.05 in data by using Student's t-test, statistical significance was recognized.

[3] = Drug administration 10 min after onset of status epilepticus, 200 mg/kg i.p., observed 50 min, mean±standard error
[4] = Early SLE, treatment started 10-15 min after occurrence of SLE, n=5
[5] = Early and late SLEs, 100 μM treated 10-15 minutes after occurrence of SLE, compared to after washing
[6] = Late SLE (after 1 hour in low Mg2+ ACSF), n=8

SMILES	Mortality ([1]; Drug administration 10 min after onset of status epilepticus, 200 mg/kg i.p.)	Seizure count [1, 3]	Seizure score (modified Racine score) [1, 3]	Duration of SLE in comparison with before treatment of Test Compound, during treatment [2, 4]	Number of SLE in comparison with before treatment of Test Compound, during treatment [2, 4]	Duration of SLE in comparison with before treatment of Test Compound, after washing ([2]; Early SLE, n=5)	Number of SLE in comparison with before treatment of Test Compound, after washing ([2]; Early SLE, n=5)	Duration of SLE, result in words [2, 5]	Number of SLE, result in words [2, 5]	Duration of SLE in comparison with before treatment of Test Compound, during treatment [2, 6]	Number of SLE in comparison with before treatment of Test Compound, during treatment [2, 6]	Duration of SLE in comparison with before treatment of Test Compound, after washing ([2]; Late SLE, n=8)	Number of SLE in comparison with before treatment of Test Compound, after washing ([2]; Late SLE, n=8)	Mortality, result in words ([1]; 20 mg/kg i.p. immediately after occurrence of status epilepticus, compared to the control group)	Mortality ([1]; Drug administration 10 min after onset of status epilepticus, 25 mg/kg i.p.)	Mortality ([1]; Drug administration immediately after onset of status epilepticus, 20 mg/kg i.p.)
CCCC(CCC)C(=O)O [Positive control group, valproic acid, reference compound]	14%	0.8 ± 0.18	3.2 ± 0.39	–	–	–	–	–	–	–	–	–	–	–	–	–
NC(=O)O[C@@H](Cn1ncnn1)c1ccccc1Cl [Test Compound, Carbamic acid (R)-1-(2-chlorophenyl)-2-tetrazol-2-yl-ethyl ester]	–	–	–	15.39 ± 6.82%	31.45 ± 16.13%	83.63 ± 5.14%	91.99 ± 16.47%	significantly reduced	significantly reduced	42.61 ± 3.50%	62.12 ± 5.59%	81.81 ± 13.78%	92.36 ± 8.21%	tendency to suppress mortality	0%	0%
